Activity calls are given as the source filed them. The rule behind the calls is not given here.
How the values were obtained:
[1] = target: NB7+Caspase-8; test: TRAIL sensitizers in caspase-8 expressing neuroblastoma cells, dose response, NB7 cells plus caspase-8, luminescence, panel (AID 652002); conditions: NB7 neuroblastoma +caspase-8, TRAIL sensitization, luminescence viability, with TRAIL
[2] = as above; conditions: NB7 neuroblastoma +caspase-8, no TRAIL, compound-alone cytotoxicity counter-screen, luminescence viability, NB7+Caspase-8
[3] = target: Tumor necrosis factor receptor superfamily member 10B (Homo sapiens) (UniProt O14763); test: as above; conditions: NB7 neuroblastoma +caspase-8, TRAIL sensitization, luminescence viability; NB7+Caspase-8; with TRAIL, mean of runs
Sequence of Tumor necrosis factor receptor superfamily member 10B (Homo sapiens) (O14763 whole entry, looked up): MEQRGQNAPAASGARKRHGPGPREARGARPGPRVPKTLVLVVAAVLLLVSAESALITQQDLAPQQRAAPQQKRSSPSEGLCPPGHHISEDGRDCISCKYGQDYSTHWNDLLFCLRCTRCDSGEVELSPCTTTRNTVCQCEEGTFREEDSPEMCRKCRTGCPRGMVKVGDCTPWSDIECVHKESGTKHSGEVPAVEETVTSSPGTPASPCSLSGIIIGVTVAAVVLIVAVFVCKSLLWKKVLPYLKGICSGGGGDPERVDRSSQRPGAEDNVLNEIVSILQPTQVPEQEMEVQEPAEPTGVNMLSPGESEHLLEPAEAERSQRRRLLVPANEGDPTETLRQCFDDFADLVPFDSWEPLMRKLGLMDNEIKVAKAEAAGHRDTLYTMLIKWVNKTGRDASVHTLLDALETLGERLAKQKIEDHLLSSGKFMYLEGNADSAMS

[4] = run 1, single replicate panel EC50
[5] = run 2, single replicate panel EC50

SMILES	EC50 [1, 4] [µM]	EC50 [1, 5] [µM]	EC50 ([2]; mean of runs)	EC50 [2, 4] [µM]	EC50 [2, 5] [µM]	EC50 [3]
CCCCC1CCC(C(=O)N(CCC(C)C)c2c(N)n(CCCC)c(=O)[nH]c2=O)CC1 (stereo unspecified)	> 12.5	> 12.5	> 12.5 µM (inactive)	> 12.5	> 12.5	> 12.5 µM (inactive)
COc1ccccc1C=NNC(=O)NN=Cc1ccccc1OC	> 12.5	7.21	inactive	8.5	10.3	inactive
O=C1CCCc2nc(N3CCc4ccccc43)ncc21	> 12.5	> 12.5	> 12.5 µM (inactive)	> 12.5	> 12.5	> 12.5 µM (inactive)
CCOc1ccc2nc(NC(=O)c3cccc(-c4cc5ccccc5oc4=O)c3)sc2c1	> 12.5	> 12.5	> 12.5 µM (inactive)	> 12.5	> 12.5	> 12.5 µM (inactive)
Cc1ccc2oc(-c3cccc(N)c3)nc2c1	> 12.5	5.69	inactive	4.71	7.88	inactive
Cc1nc(Cl)c2oc3ccccc3c2n1	> 12.5	> 12.5	> 12.5 µM (inactive)	> 12.5	> 12.5	> 12.5 µM (inactive)
CC(C)Cc1nc2oc3c(Cl)ncnc3c2c2c1CCCC2	> 12.5	> 12.5	> 12.5 µM (inactive)	> 12.5	> 12.5	> 12.5 µM (inactive)
O=C(NC1=NCCS1)c1cc2ccccc2o1	5.35	10.4	inactive	> 12.5	4.22	inactive
CC(C)CCn1c(=O)c(C(=O)Nc2ccccc2S(N)(=O)=O)c(O)c2ccccc21	> 12.5	> 12.5	> 12.5 µM (inactive)	> 12.5	> 12.5	> 12.5 µM (inactive)
CCOc1ccc(/C=C/C(=O)Nc2cccc(C(C)=O)c2)cc1	> 12.5	> 12.5	> 12.5 µM (inactive)	> 12.5	> 12.5	> 12.5 µM (inactive)
COc1ccc(-c2cc(C(=O)N/N=C/c3cccnc3)c3ccccc3n2)cc1	> 12.5	> 12.5	inactive	11.3	> 12.5	> 12.5 µM (inactive)
CCOc1ccc(NC(=O)c2ccco2)cc1	> 12.5	6.9	inactive	6.87	10.7	inactive
CCOC(=O)c1cccc(-[n+]2c(-c3ccccc3)cc(-c3ccccc3)cc2-c2ccccc2)c1	> 12.5	> 12.5	> 12.5 µM (inactive)	> 12.5	> 12.5	> 12.5 µM (inactive)
Cn1c(=O)c2c(SCC(=O)Nc3ccccc3F)nc(C3CC3)nc2n(C)c1=O	> 12.5	> 12.5	> 12.5 µM (inactive)	> 12.5	> 12.5	> 12.5 µM (inactive)
O=C(Nc1ccc2c(c1)OCO2)c1ccc2c(c1)OCO2	> 12.5	5.17	inactive	6.92	11.2	inactive
O=c1[nH]c(N/N=C\c2ccc3c(c2)OCO3)nc2ccccc12	> 12.5	10.1	inactive	> 12.5	10.9	inactive
Cc1ccc(-n2nnc(-c3cccnc3Cl)n2)cc1	> 12.5	> 12.5	> 12.5 µM (inactive)	> 12.5	> 12.5	> 12.5 µM (inactive)
O=C(Nc1ccc2c(c1)OCCO2)NC1CCCCC1	> 12.5	12	> 12.5 µM (inactive)	> 12.5	> 12.5	inactive
O=C(Nc1ccc(C(=O)O)cc1)/C(=C\C=C\c1ccccc1)NC(=O)c1ccccc1Cl	> 12.5	3.5	inactive	7.94	> 12.5	inactive
CC1(C)N=C(N)N=C(N)N1c1ccc(Oc2ccc(Cl)cc2)c(Cl)c1	1.33	0.948	inactive	1.64	0.423	inactive
CCN(CC)c1ccc(NC(=O)Nc2ccccc2)cc1	> 12.5	8.27	inactive	> 12.5	10.9	inactive
